Experimental data: article PMC11748629, “Unidirectional MCM translocation away from ORC drives origin licensing” (Nature Communications, 2025)

Legend:
Experiment in all cases: cryo-EM structure
MCM-Cdt1 complex [1] = system: T1, MCM-Cdt1 complex; assay type: binding, Saccharomyces cerevisiae; settings: OC1M-Mcm5RA complex (no Cdc6) on ARS1 DNA with ORC; 2 mM ATP added, Mg2+, pH 7.6, 30 C; sites Mcm5/2, 2/6, 6/4 and 4/7; conformers 1 and 2
T1 construct: gene MCM2; with Cell division cycle protein CDT1

MCM-Cdt1 complex [2] = system: T1, MCM-Cdt1 complex; assay type: binding, Saccharomyces cerevisiae; settings: OCCM-Mcm2RA complex on ARS1 DNA with ORC-Cdc6; 3 mM ATP added, Mg2+, pH 7.6, 30 C; all six MCM ATPase sites occupied, ADP assigned from density
ORC complex = biological target: T2, ORC complex (Saccharomyces cerevisiae, UniProt P50874+P54784+P54790+P54791); assay type: binding; settings: wild-type ORC in OCCM-Mcm2RA (sites Orc4-Orc1, Orc5-Orc4, Orc3-Orc5) and in OC1M-Mcm5RA (Orc5-Orc4, Orc3-Orc5); 2-3 mM ATP, Mg2+, pH 7.6, 30 C
T2 construct: gene ORC1; with Origin recognition complex subunit 2; Origin recognition complex subunit 6
T2 sequence (P54784 whole entry): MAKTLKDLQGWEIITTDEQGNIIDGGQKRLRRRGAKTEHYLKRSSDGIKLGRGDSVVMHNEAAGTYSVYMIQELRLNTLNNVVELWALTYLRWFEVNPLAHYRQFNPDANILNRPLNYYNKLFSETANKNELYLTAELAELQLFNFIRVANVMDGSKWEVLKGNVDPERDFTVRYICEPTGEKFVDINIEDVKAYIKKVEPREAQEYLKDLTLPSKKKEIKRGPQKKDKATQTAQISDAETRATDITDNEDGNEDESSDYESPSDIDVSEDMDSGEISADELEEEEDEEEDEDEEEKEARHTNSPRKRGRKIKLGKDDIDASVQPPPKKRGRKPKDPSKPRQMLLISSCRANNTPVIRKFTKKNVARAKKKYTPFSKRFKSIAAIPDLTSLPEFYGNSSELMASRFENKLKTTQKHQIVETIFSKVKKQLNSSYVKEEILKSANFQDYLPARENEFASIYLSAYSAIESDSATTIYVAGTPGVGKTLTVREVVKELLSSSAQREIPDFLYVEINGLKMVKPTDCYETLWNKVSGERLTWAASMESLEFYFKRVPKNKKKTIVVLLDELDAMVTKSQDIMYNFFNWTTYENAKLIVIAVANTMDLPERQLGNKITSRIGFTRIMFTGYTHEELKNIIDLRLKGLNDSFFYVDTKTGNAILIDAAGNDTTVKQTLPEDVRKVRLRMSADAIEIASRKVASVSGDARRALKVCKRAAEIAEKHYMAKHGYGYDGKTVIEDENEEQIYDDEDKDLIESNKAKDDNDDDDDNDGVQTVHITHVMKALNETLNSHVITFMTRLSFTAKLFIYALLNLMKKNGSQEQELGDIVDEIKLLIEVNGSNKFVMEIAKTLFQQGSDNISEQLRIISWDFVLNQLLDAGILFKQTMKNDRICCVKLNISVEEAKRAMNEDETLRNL
T2 sequence (P54790 2-616): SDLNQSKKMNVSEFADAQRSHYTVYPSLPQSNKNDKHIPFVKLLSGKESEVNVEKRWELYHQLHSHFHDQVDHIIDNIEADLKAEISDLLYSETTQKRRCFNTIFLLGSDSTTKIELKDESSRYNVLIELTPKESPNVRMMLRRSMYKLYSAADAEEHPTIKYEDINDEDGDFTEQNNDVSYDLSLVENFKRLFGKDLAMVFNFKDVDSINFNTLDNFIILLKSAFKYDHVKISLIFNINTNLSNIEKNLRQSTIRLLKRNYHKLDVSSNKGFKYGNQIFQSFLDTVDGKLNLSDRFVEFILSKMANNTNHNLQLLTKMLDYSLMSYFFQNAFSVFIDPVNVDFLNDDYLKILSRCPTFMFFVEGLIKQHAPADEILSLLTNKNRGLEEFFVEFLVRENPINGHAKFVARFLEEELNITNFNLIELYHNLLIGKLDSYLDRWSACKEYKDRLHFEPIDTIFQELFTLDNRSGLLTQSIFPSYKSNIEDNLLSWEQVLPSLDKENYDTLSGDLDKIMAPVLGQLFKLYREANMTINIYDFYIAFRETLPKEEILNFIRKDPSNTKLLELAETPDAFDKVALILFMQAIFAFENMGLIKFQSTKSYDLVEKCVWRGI
T2 sequence (P54791 whole entry): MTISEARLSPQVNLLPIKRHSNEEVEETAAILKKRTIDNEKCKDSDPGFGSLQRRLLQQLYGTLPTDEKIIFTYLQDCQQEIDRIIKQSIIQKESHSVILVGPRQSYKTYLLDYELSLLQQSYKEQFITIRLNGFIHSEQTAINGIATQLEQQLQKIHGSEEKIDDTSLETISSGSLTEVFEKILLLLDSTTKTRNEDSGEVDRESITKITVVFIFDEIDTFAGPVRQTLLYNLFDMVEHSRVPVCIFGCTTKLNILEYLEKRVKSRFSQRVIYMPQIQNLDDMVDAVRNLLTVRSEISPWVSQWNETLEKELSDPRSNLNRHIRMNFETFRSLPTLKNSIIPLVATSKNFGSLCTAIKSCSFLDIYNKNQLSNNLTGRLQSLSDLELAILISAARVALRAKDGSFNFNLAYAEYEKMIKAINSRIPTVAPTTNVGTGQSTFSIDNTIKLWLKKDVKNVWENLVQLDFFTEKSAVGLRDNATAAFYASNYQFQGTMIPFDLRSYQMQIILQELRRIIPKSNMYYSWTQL
T2 sequence (P50874 whole entry): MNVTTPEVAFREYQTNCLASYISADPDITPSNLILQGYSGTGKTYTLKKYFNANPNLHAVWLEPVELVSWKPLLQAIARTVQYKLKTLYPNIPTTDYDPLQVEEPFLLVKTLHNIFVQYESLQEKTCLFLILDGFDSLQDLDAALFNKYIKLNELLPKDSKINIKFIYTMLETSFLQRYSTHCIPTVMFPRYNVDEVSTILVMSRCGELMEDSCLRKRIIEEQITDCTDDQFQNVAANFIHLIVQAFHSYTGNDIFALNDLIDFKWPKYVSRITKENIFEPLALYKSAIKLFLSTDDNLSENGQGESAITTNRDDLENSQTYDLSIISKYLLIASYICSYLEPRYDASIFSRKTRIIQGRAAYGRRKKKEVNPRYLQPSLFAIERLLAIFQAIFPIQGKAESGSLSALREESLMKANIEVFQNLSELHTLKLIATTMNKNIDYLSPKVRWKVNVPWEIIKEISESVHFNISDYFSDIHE
T2 sequence (P32833 whole entry partner): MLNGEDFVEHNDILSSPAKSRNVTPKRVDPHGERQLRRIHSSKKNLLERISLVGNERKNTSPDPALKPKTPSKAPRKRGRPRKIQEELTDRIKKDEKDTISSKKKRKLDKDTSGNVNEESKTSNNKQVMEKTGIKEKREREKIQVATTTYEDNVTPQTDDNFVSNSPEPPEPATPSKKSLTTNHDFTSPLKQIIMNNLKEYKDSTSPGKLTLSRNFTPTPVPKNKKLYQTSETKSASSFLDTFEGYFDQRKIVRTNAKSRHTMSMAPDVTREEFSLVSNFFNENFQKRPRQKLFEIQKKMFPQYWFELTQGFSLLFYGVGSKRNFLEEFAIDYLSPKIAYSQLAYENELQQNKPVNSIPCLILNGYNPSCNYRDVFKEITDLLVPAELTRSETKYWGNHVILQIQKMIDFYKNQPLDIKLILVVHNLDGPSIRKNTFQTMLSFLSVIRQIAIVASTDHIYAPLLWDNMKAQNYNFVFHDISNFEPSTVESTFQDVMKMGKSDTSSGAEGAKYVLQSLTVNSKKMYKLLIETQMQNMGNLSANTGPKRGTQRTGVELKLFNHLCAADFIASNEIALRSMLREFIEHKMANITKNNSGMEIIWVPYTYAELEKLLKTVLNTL
T2 sequence (P38826 whole entry partner): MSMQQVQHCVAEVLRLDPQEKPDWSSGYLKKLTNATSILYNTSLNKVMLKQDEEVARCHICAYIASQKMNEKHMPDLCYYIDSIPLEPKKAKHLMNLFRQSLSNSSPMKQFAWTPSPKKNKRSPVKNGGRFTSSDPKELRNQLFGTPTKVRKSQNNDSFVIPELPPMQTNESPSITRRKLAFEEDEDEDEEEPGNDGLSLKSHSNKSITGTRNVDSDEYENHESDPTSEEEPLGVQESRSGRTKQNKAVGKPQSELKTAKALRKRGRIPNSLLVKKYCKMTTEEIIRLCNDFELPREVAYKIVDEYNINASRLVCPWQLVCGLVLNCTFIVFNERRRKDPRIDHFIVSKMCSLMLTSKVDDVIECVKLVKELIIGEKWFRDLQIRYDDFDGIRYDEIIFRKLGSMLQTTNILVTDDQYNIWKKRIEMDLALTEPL

Compound	cryo-EM structure (MCM-Cdt1 complex [1])	cryo-EM structure (MCM-Cdt1 complex [2])	cryo-EM structure (ORC complex)
Nc1ncnc2c1ncn2[C@@H]1O[C@H](COP(=O)(O)OP(=O)(O)O)[C@@H](O)[C@H]1O [ADP]	Four ATPase sites were identified as occupied, with ADP modelled based on the density	All six ATPase sites were identified as occupied, with ADP modelled based on the density	
Nc1ncnc2c1ncn2[C@@H]1O[C@H](COP(=O)(O)OP(=O)(O)OP(=O)(O)O)[C@@H](O)[C@H]1O [ATP]			ATP can only be observed in the Orc4-Orc1, Orc5-4 and Orc3-5 nucleotide-binding sites
